Results on two molecules are retold here after ChEMBL document CHEMBL4828727, “Antibacterial and antitumoral properties of 1,2,3-triazolo fused triterpenes and their mechanism of inhibiting the proliferation of HL-60 cells” (Eur J Med Chem, 2021).

Molecules are shown by their SMILES. ≈ marks a conversion by molar mass, not a printed value. Calls of active or inactive are those of the source. No cut-off for these calls is given here.

The subject of experiment [1] is Z-138. As to the kind of experiment: cells. It is filed as functional, cell-based. As to conditions: Homo sapiens, Z-138, 72 h.
Description: Antiproliferative activity against human Z138 cells assessed as inhibition of cell viability measured after 72 hrs by real-time IncuCyte proliferation analysis
Experiment [2] has as its system Salmonella enterica subsp. enterica. As to the kind of experiment: Antibacterial activity against Salmonella enterica subsp.enterica ATCC13076 assessed as growth inhibition after 20 hrs by broth microdilution method. The class given is functional. A general note: Dilution methods test growth across graded concentrations, often in twofold steps.
For experiment [3], the system named is K562. As to the kind of experiment: cells. The conditions noted are these: Homo sapiens, K562, 72 h. The class given is functional, cell-based.
Description: Antiproliferative activity against human K562 cells assessed as inhibition of cell viability measured after 72 hrs by real-time IncuCyte proliferation analysis
The subject of experiment [4] is LN-229. In words: Antiproliferative activity against human LN-229 cells assessed as inhibition of cell viability measured after 72 hrs by colorimetric MTS viability assay. It is filed as functional, cell-based. As to conditions: LN-229, 72 h. A general note: Formazan colour is commonly taken as a measure of viable cells.
In experiment [5] the test system is NCI-H460. In words: cells. It is filed as functional, cell-based. As to conditions: Homo sapiens, NCI-H460, 72 h.
Description: Antiproliferative activity against human NCI-H460 cells assessed as inhibition of cell viability measured after 72 hrs by colorimetric MTS viability assay
Experiment [6] relates to Escherichia coli. In words: Antibacterial activity against Escherichia coli ATCC47076 assessed as growth inhibition after 20 hrs by broth microdilution method. It is filed as functional.
Experiment [7] has as its system MV4-11. In words: cells. The conditions noted are these: Homo sapiens, MV4-11, 72 h. It is filed as functional, cell-based.
Description: Cytotoxicity against human MV4-11cells assessed as inhibition of cell viability measured after 72 hrs by real-time IncuCyte proliferation analysis
The test system of experiment [8] is Listeria innocua. As to the kind of experiment: Antibacterial activity against Listeria innocua LMG11387 assessed as growth inhibition after 20 hrs by broth microdilution method. The class given is functional.
For experiment [9], the system named is CAPAN-1. In words: cells. It is filed as functional, cell-based. The conditions noted are these: Homo sapiens, CAPAN-1, 72 h.
Description: Antiproliferative activity against human CAPAN-1 cells assessed as inhibition of cell viability measured after 72 hrs by colorimetric MTS viability assay
In experiment [10] the test system is Staphylococcus aureus. In words: Antibacterial activity against Staphylococcus aureus ATCC65385 assessed as growth inhibition after 20 hrs by broth microdilution method. It is filed as functional.
The subject of experiment [11] is HL-60. As to the kind of experiment: cells. The class given is functional, cell-based. The conditions noted are these: Homo sapiens, HL-60, 72 h.
Description: Antiproliferative activity against human HL-60 cells assessed as inhibition of cell viability measured after 72 hrs by real-time IncuCyte proliferation analysis
The nature of experiment [12]: Antiproliferative activity against human DND41 cells assessed as inhibition of cell viability measured after 72 hrs by real-time IncuCyte proliferation analysis. As to conditions: DND41, 72 h. The class given is functional, cell-based.
A short description of experiment [13]: Antiproliferative activity against human HAP1 cells assessed as inhibition of cell viability measured after 72 hrs by colorimetric MTS viability assay. The class given is functional, cell-based. The conditions noted are these: HAP1, 72 h.
For experiment [14], the system named is Jurkat. As to the kind of experiment: cells. It is filed as functional, cell-based. As to conditions: Homo sapiens, 72 h.
Description: Cytotoxicity against human Jurkat cells assessed as inhibition of cell viability measured after 72 hrs by real-time IncuCyte proliferation analysis
In experiment [15] the test system is HCT-116. As to the kind of experiment: Antiproliferative activity against human HCT-116 cells assessed as inhibition of cell viability measured after 72 hrs by colorimetric MTS viability assay. As to conditions: HCT-116, 72 h. The class given is functional, cell-based.
Experiment [16] deals with Rec1. As to the kind of experiment: cells. It is filed as functional, cell-based. As to conditions: Homo sapiens, Rec1, 72 h.
Description: Cytotoxicity against human REC1 cells assessed as inhibition of cell viability measured after 72 hrs by real-time IncuCyte proliferation analysis

Broadly, the IC50 is the concentration that gives 50% inhibition. The MIC50 is the lowest concentration that inhibits either 50% of growth or 50% of the strains tested, depending on the study. `C[C@H]1[C@H](C)CC[C@]2(C(=O)O)CC[C@]3(C)C(=CC[C@@H]4[C@@]5(C)Cc6nnn(Cc7ccc8[nH]ccc8c7)c6C(C)(C)[C@@H]5CC[C@]43C)[C@H]12`: the IC50 in experiment [1] is 9.4 µM; in experiment [3], 49.3 µM; in experiment [4] it was 33.1 µM; in experiment [5], 8.6 µM; in experiment [7] it was 12.9 µM; in experiment [9], 4.5 µM. The IC50 was determined as 1.5 µM in experiment [11]; 11.5 µM in experiment [12]; 4.3 µM in [13]; 3.2 µM in experiment [14]; 11.5 µM in [15]; 1.7 µM in [16]. Further, the MIC50 result in experiment [2] and in [6] was “inactive” throughout. Besides, the MIC50 in experiment [8] came out at 153 µg/mL (≈ 252 µM); in experiment [10], 37 µg/mL (≈ 60.7 µM).
Turning to `CC1(C)CC[C@]2(C(=O)O)CC[C@]3(C)C(=CC[C@@H]4[C@@]5(C)Cc6nnn(Cc7ccc8cc[nH]c8c7)c6C(C)(C)[C@@H]5CC[C@]43C)[C@@H]2C1`, the IC50 is 67.4 µM in [1]; 69.2 µM in experiment [3]; 44.4 µM in [4]; more than 100 µM in [5]; 21.5 µM in experiment [7]; 9.4 µM in experiment [9]. Moreover, the IC50 in experiment [11] was 3.3 µM; in experiment [12], more than 100 µM; in [13], 9.2 µM; in experiment [14], 2.2 µM; in [15], 11 µM; in experiment [16], 1.8 µM. Further, the MIC50 in experiment [2] is 29 µg/mL (≈ 47.6 µM); in experiment [6] it was 40.8 µg/mL (≈ 67.1 µM); in [8] it was 90 µg/mL (≈ 148 µM); in experiment [10], 199 µg/mL (≈ 327 µM).
